Here are results for two molecules from patent publication US20240336647A1, “NUCLEOSIDE ANALOGS AND THERAPEUTIC USE THEREOF” (priority 2023, published 2024).

“Also recorded” adds a separate entry of the source.

The target in assay [1] is T1, SARS-COV-2 RdRp (Severe acute respiratory syndrome coronavirus 2, UniProt P0DTD1). The class given is biochemical.
In assay [2] the target is T1, SARS-COV-2 RdRp. Kind of assay: Primer extension to determine if m1A is incorporated onto RNA by RdRp via m1ATP (PAGE). The class given is biochemical. The note with it: CTP, 37° C. Here is the method:
Determine if the m1A or m3C modification could be incorporated onto RNA or DNA by a polymerase via m1ATP or m3CTP, respectively: The SARS-COV-2 RdRp with m1ATP is used as the example. Sources of materials used in the experiment can be found in reference [Apostle et al Preprints doi:10.20944/preprints202311.1268.v1]. RNA duplex [F038]-[F039] (SEQ ID NOs: 12 and 13, FIG. 2) was prepared by annealing the two RNAs using the following procedure. The solution of RNAs [F038] (SEQ ID NO: 12, 20 μM, all concentrations are final) and [F039] (SEQ ID NO: 13, 20 μM) in Tris-HCl (10 mM), and KCI (100 mM) was heated at 94° C. for 5 min. The solution was then cooled to RT slowly giving the [F038]-[F039] (SEQ ID NOs: 12 and 13) duplex. […] To another tube containing only the RNA duplex in 10 μL nuclease free water ([…], corresponding to the experiment of lane 1 in FIG. 2) were also added the EDTA and loading dye solutions (same quantities as above, final volume 30 μL). […]
The results of the primer extension reaction is shown in FIG. 2, gel image for determining if m1A could be incorporated onto RNA by SARS-COV-2 RdRp via m1ATP. […] The reaction products were analyzed with PAGE. […]

Turning to `C[n+]1c(N)ccn([C@@H]2O[C@H](CO)C(O)C2O)c1=O` (stereo partly drawn) [m3C, N3-methylcytidine], the “effect of the modification in template RNA on RdRp catalytic activity” value on SARS-COV-2 RdRp [1] was “has minimal impact; also recorded: can be tolerated by the RdRp; also recorded: has little effect on the RdRp”.

With `C[n+]1cnc2c(ncn2[C@@H]2O[C@H](COP(=O)(O)OP(=O)(O)OP(=O)(O)O)C(O)C2O)c1N` (stereo partly drawn) [m1ATP], on SARS-COV-2 RdRp [2] (m1ATP only for 15 min, then ATP, GTP and UTP), the “inhibition of RdRp by m1ATP” value was “does not inhibit RdRp”. The “incorporation of m1A into RNA by RdRp via m1ATP” value at SARS-COV-2 RdRp [2] (m1ATP, GTP, UTP 0.5 mM each, no ATP, 2 h) is on record as “m1A can be incorporated into RNA by SARS-COV-2 RdRp via m1ATP; also recorded: m1A could indeed be efficiently incorporated into RNA by SARS-COV-2 RdRp; also recorded: m1A can be incorporated onto RNA”.
